According to patent publication US20060069132A1, “Azolecarboxamide herbicides” (priority 2004, published 2006):

How the values were obtained:
barnyardgrass = experiment: Test A pre-/postemergence herbicide test; format: in vivo, Echinochloa crus-galli
Summary of the method: (§1)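 Sandy loam soil given preemergence directed spray; plants at 2 to 10 cm, one- to two-leaf stage, sprayed to runoff postemergence, compounds in non-phytotoxic solvent with surfactant. Injury rated visually versus untreated controls after about ten greenhouse days, 0 (no effect) to 100 (complete control); dash means not tested.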

large crabgrass = experiment: Test A pre-/postemergence herbicide test; format: in vivo, Digitaria sanguinalis
Summary of the method: as §1

redroot pigweed = experiment: Test A pre-/postemergence herbicide test; format: in vivo, Amaranthus retroflexus
Summary of the method: as §1

corn = experiment: Test C pre-/postemergence herbicide test; format: in vivo, Zea mays
Summary of the method: (§2)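 Preemergence: seeds planted and treated with compound in non-phytotoxic solvent with surfactant; postemergence: plants at 2 to 18 cm (1- to 4-leaf stage) sprayed likewise. Kept in greenhouse 12 to 14 days, then visually rated against controls, 0 (no effect) to 100 (complete control).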

giant foxtail = experiment: Test C pre-/postemergence herbicide test; format: in vivo, Setaria faberi; conditions: for Foxtail, Giant plant response rating: 500 g ai/ha
Summary of the method: as §2

kochia = experiment: Test C pre-/postemergence herbicide test; format: in vivo, Kochia scoparia; conditions: for Kochia plant response rating: 500 g ai/ha
Summary of the method: as §2

lambsquarters = experiment: Test C pre-/postemergence herbicide test; format: in vivo, Chenopodium album; conditions: for Lambsquarters plant response rating: 500 g ai/ha
Summary of the method: as §2

common ragweed = experiment: Test C pre-/postemergence herbicide test; format: in vivo, Ambrosia elatior; parameters: key to Plant response rating, Ragweed: 0 = no effect, 100 = complete control; conditions: for Ragweed plant response rating: 500 g ai/ha
Summary of the method: as §2

[1] = test system: common (oilseed) sunflower; experiment: Test C pre-/postemergence herbicide test; format: in vivo, Helianthus annuus
Summary of the method: as §2

velvetleaf = experiment: Test C pre-/postemergence herbicide test; format: in vivo, Abutilon theophrasti; conditions: for Velvetleaf plant response rating: 500 g ai/ha
Summary of the method: as §2

[2] = Postemergence, 250 g ai/ha, 0 to 100 scale, 0 no effect, 100 complete control
[3] = Postemergence, 1000 g ai/ha, 0 to 100 scale, 0 no effect, 100 complete control
[4] = Preemergence, 1000 g ai/ha, visual rating, 0 to 100 scale (0 no effect, 100 complete control)
[5] = preemergence, 250 g ai/ha, visual injury, 0 to 100 scale (0 no effect, 100 complete control)
[6] = 125 g ai/ha, scale 0-100, preemergence
[7] = Postemergence, 125 g ai/ha, scale 0 to 100, 0 no effect, 100 complete control
[8] = Postemergence, 250 g ai/ha, scale 0 to 100, 0 no effect, 100 complete control
[9] = postemergence, 62 g ai/ha, scale 0 to 100
[10] = 250 g ai/ha, scale 0 to 100 (0 no effect, 100 complete control), visual, 12 to 14 days, preemergence
[11] = Preemergence, scale 0 to 100, 0 no effect, 100 complete control
[12] = postemergence, 125 g ai/ha, scale 0 to 100

## CCNC(=O)c1cccc(NC(=O)c2cc(C(C)(C)C)nn2CC(F)(F)F)c1 [Compound 31]
barnyardgrass; [2]
  Barnyardgrass plant response rating: 65
barnyardgrass; [3]
  Plant response rating, Barnyardgrass: 75
barnyardgrass; [4]
  Barnyardgrass plant response rating: 80
barnyardgrass; [5]
  Barnyardgrass plant response rating: 40
Large crabgrass; [2]
  Crabgrass, Large plant response rating: 30
Large crabgrass; [3]
  Plant response rating, Crabgrass, Large: 40
Large crabgrass; [4]
  Crabgrass, Large plant response rating: 45
Large crabgrass; [5]
  Crabgrass, Large plant response rating: 20
Redroot pigweed; [2]
  Pigweed plant response rating: 55
Redroot pigweed; [3]
  Plant response rating, Pigweed: 80
Redroot pigweed; [4]
  Pigweed plant response rating: 80
Redroot pigweed; [5]
  Pigweed plant response rating: 45
corn; 62 g ai/ha, preemergence
  Plant response rating (0 = no effect, 100 = complete control), Corn: 0
corn; [6]
  Plant response rating, Corn: 20
corn; Postemergence, 500 g ai/ha, scale 0 to 100
  Corn plant response rating: 50
corn; [7]
  Plant response rating, Corn: 40
corn; [8]
  Plant response rating, Corn: 40
corn; [9]
  Plant response rating, Corn: 40
Giant foxtail; 62 g ai/ha, preemergence
  Plant response rating (0 = no effect, 100 = complete control), Foxtail, Giant: 20
Giant foxtail; [6]
  Plant response rating, Foxtail, Giant: 30
Giant foxtail; [10]
  Plant response rating, Foxtail, Giant: 70
Giant foxtail; Postemergence, scale 0 to 100
  Foxtail, Giant plant response rating: 40
Giant foxtail; [7]
  Plant response rating, Foxtail, Giant: 30
Giant foxtail; [8]
  Plant response rating, Foxtail, Giant: 30
Giant foxtail; [11]
  Foxtail, Giant plant response rating: 100
Giant foxtail; [9]
  Plant response rating, Foxtail, Giant: 20
kochia; 62 g ai/ha, preemergence
  Plant response rating (0 = no effect, 100 = complete control), Kochia: 0
kochia; [6]
  Plant response rating, Kochia: 80
kochia; [10]
  Plant response rating, Kochia: 100
kochia; Postemergence, scale 0 to 100
  Kochia plant response rating: 70
kochia; [7]
  Plant response rating, Kochia: 70
kochia; [8]
  Plant response rating, Kochia: 70
kochia; [11]
  Kochia plant response rating: 100
kochia; [9]
  Plant response rating, Kochia: 70
lambsquarters; 62 g ai/ha, preemergence
  Plant response rating (0 = no effect, 100 = complete control), Lambsquarters: 90
lambsquarters; [6]
  Plant response rating, Lambsquarters: 100
lambsquarters; [10]
  Plant response rating, Lambsquarters: 100
lambsquarters; Postemergence, scale 0 to 100
  Lambsquarters plant response rating: 90
lambsquarters; [8]
  Plant response rating, Lambsquarters: 90
lambsquarters; [11]
  Lambsquarters plant response rating: 100
lambsquarters; [12]
  Plant response rating, Lambsquarters: 80
lambsquarters; [9]
  Plant response rating, Lambsquarters: 80
Common ragweed; 62 g ai/ha, preemergence
  Plant response rating (0 = no effect, 100 = complete control), Ragweed: 0
Common ragweed; [10]
  Plant response rating, Ragweed: 60
Common ragweed; Postemergence, scale 0 to 100
  Ragweed plant response rating: 70
Common ragweed; [8]
  Plant response rating, Ragweed: 40
Common ragweed; [11]
  Ragweed plant response rating: 80
Common ragweed; [12]
  Plant response rating, Ragweed: 40
Common ragweed; [9]
  Plant response rating, Ragweed: 30
[1]; 62 g ai/ha, preemergence
  Plant response rating (0 = no effect, 100 = complete control), Sunflower: 0
[1]; [10]
  Plant response rating, Sunflower: 20
[1]; Preemergence, 500 g ai/ha, scale 0 to 100, 0 no effect, 100 complete control
  Sunflower plant response rating: 20
velvetleaf; 62 g ai/ha, preemergence
  Plant response rating (0 = no effect, 100 = complete control), Velvetleaf: 20
velvetleaf; [10]
  Plant response rating, Velvetleaf: 100
velvetleaf; Postemergence, scale 0 to 100
  Velvetleaf plant response rating: 70
velvetleaf; [8]
  Plant response rating, Velvetleaf: 70
velvetleaf; [11]
  Velvetleaf plant response rating: 100
velvetleaf; [12]
  Plant response rating, Velvetleaf: 60
velvetleaf; [9]
  Plant response rating, Velvetleaf: 50
